Consider 15 compounds from US9340577B2, “HLA binding motifs and peptides and their uses” (priority 1992, dated 2016).

Like-named read-outs stand apart in the source and are kept apart here. No end group written: not given here.

What all share (assay): biochemical
One assay deals with DRB1*0301 (Homo sapiens, UniProt P01903+P01911, A100K/A102G/A103R/A169T/F55Y/I96L/K41T/L162R/M171V/P40S/Q125H/Q178H/Q39Y/R42S/S66N/T106N/T262R/W38E/Y61H). In kind it is binding.
The target in the next assay is DRB4*0101 (Homo sapiens, UniProt P01903+P13762, G164S). In kind it is binding.
Another assay addresses DRB5*0101 (Homo sapiens, UniProt P01903+Q30154).
The target of the next assay is DRB1*1501 (Homo sapiens, UniProt P01903+P01911). In kind it is binding.
Another assay has as its target DRB1*1201 (Homo sapiens, UniProt P01903+P01911, A100R/A169T/D57E/D86V/F55L/H45Y/K41T/L162R/M171V/P40S/Q125H/Q178H/Q39Y/Q99D/R42G/S66L/T262R/V114A/V67L/W38E/Y59H/Y61H/Y89S). In kind it is binding.
For another assay, the target named is DR1 (DRB1*0101) (Homo sapiens, UniProt P01903+P01911, A100R/D57E/F55L/F60I/F76Y/I96L/L162R/M171V/P40L/Q125E/R42F/V115G/Y59C). In kind it is binding.
For another assay, the target named is DR4w4 (DRB1*0401) (Homo sapiens, UniProt P01903+P01911, A100K/A169T/F76Y/I96L/K127E/L162R/M171V/N62H/P40V/Q125Y/R42H/S133A/S149N/S66Y/V115G/V209L/W38E). In kind it is binding.
The target in the next assay is DRB1*0901 (Homo sapiens, UniProt P01903+P01911, A100R/A103E/D57H/D86V/F55Y/F60I/F76Y/I96F/K127E/L162R/M171V/P40D/Q125H/Q99R/R33Q/R42F/S133A/S66N/T210M/V115G/W38K/Y107V/Y59G/Y89S). In kind it is binding.
The next assay has as its target DR7 (DRB1*0701) (Homo sapiens, UniProt P01903+P01911, A100R/A102G/A103Q/D57E/D86V/E43K/F76Y/K127E/L162R/M171V/P40G/Q125H/Q99D/R33Q/R42Y/R54Q/S133A/S66F/T210M/V115G/Y107V/Y59L/Y89S). In kind it is binding.
The target in another assay is DRB1*0802 (Homo sapiens, UniProt P01903+P01911, A100R/A103L/A169T/F76Y/H45Y/I96F/K41T/L162R/M171V/P40S/Q125H/Q178H/Q39Y/Q99D/R218S/R42G/S66Y/V115G/W38E). In kind it is binding.
The target of another assay is DRB1*1302 (Homo sapiens, UniProt P01903+P01911, A100E/A169T/K41T/L162R/M171V/P40S/Q125H/Q178H/Q39Y/Q99D/R42S/S66N/T262R/V115G/W38E/Y61H). In kind it is binding.
DRB1*1302, sequence (P01903 26-254 limits assumed, other chains not shown): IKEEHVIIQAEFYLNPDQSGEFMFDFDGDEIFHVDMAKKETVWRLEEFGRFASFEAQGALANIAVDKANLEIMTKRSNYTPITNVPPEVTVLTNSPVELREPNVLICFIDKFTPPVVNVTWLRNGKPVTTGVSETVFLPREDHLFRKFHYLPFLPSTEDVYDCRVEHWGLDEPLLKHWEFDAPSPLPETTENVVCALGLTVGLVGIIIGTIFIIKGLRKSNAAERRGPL
A further assay addresses DRB1*1101 (Homo sapiens, UniProt P01903+P01911, A100R/A169T/A87E/I96F/K41T/L162R/M171V/P40S/Q125H/Q178H/Q39Y/Q99D/R42S/S66Y/T262R/V115G/W38E).

Broadly, the IC50 is the concentration that gives 50% inhibition. A lower IC50 goes with inhibition by little substance.

DRB1*0301, sequence (P01903 26-254 limits assumed, other chains not shown): as above
DRB1*1101, sequence (P01903 26-254 limits assumed, other chains not shown): as above

Turning to `CC[C@H](C)[C@H](NC(=O)[C@H](Cc1c[nH]cn1)NC(=O)[C@H](C)NC(=O)[C@H](Cc1ccc(O)cc1)NC(=O)[C@H](CC(C)C)NC(=O)[C@@H](NC(=O)[C@H](Cc1ccccc1)NC(=O)[C@@H]1CCCN1C(=O)[C@H](CCC(N)=O)NC(=O)[C@@H](NC(=O)[C@H](CC(C)C)NC(=O)[C@@H](NC(=O)[C@H](CCCCN)NC(=O)[C@@H](N)Cc1ccccc1)[C@@H](C)O)[C@@H](C)CC)[C@@H](C)CC)C(=O)N[C@@H](CCC(N)=O)C(=O)O` [Peptide 89.0025], the IC50 was > 20000 nM at DRB1*0301; 9.6 nM against DRB4*0101; 8.43 µM on DRB5*0101 (Binding affinity DRB5 *0101); 20 nM against DRB1*1501; 513 nM against DRB1*1201; 27 nM on DR1 (DRB1*0101). The IC50 against DR4w4 (DRB1*0401) is 728 nM; at DRB1*0901 it was 97 nM; against DR7 (DRB1*0701), 882 nM.
As for WKLIRMECALLYTAK [Peptide 90.0199], the IC50 was determined as 141 nM against DRB1*0301; 62 nM against DRB4*0101; 3.63 µM on DRB5*0101 (Binding affinity DRB5 *0101); 509 nM against DRB1*1501; 159 nM against DRB1*1201; 2700 nM on DRB1*0802. Further, the IC50 was 4000 nM against DRB1*0901, 3160 nM against DR7 (DRB1*0701), 98 nM against DRB1*1302 and 2000 nM on DRB1*1101 (Binding affinity DRB1 *1101).
With RLNVCQDKILTHYEN [Peptide 90.0160], the IC50 worked out at 307 nM on DRB1*0301; 0.61 nM on DRB4*0101; 1.64 µM on DRB5*0101 (Binding affinity DRB5 *0101); 3800 nM at DRB1*1501; 256 nM against DRB1*1201; 2.7 nM on DR1 (DRB1*0101). In addition, the IC50 was found to be 3.5 nM against DR4w4 (DRB1*0401); 50 nM against DRB1*0901; 7980 nM at DR7 (DRB1*0701); 96 nM on DRB1*1302; 372 nM at DRB1*1101 (Binding affinity DRB1 *1101).
Take WKAVRHENVLYYKAR [Peptide 90.0230]: the IC50 worked out at 76 nM at DRB1*0301; 189 nM against DRB4*0101; 0.762 µM at DRB5*0101; 415 nM at DRB1*1201; 613 nM against DRB1*0802; 164 nM against DR1 (DRB1*0101). The IC50 against DR4w4 (DRB1*0401) stood at 718 nM; against DR7 (DRB1*0701) it was 666 nM; at DRB1*1302, 264 nM; against DRB1*1101, 2120 nM.
Turning to `CSCC[C@H](NC(=O)[C@H](Cc1ccc(O)cc1)NC(=O)[C@H](Cc1ccc(O)cc1)NC(=O)[C@@H](NC(=O)[C@@H](N)CO)C(C)C)C(=O)N[C@H](C(=O)N[C@@H](CC(=O)O)C(=O)N[C@@H](C)C(=O)NCC(=O)N[C@H](C(=O)N[C@@H](Cc1c[nH]c2ccccc12)C(=O)N[C@@H](CC(=O)O)C(=O)N[C@@H](CCCCN)C(=O)N[C@H](C(=O)N[C@@H](C)C(=O)O)[C@@H](C)O)[C@@H](C)O)[C@@H](C)O` [Peptide 90.0182], the IC50 against DRB1*0301 was 328 nM; against DRB4*0101, 7 nM; at DRB5*0101 (Binding affinity DRB5 *0101), > 20 µM; at DRB1*1501, 43 nM; against DRB1*1201, 708 nM; against DRB1*0802, 8460 nM. The IC50 against DR1 (DRB1*0101) was found to be 9.3 nM; at DRB1*0901 it was 1600 nM; on DRB1*1302, 14 nM; on DRB1*1101 (Binding affinity DRB1 *1101), 2880 nM.
Take LKLFLKGVPKKNCIL [Peptide 89.0054]: the IC50 turned out to be 9900 nM at DRB1*0301; 619 nM against DRB4*0101; 3350 nM on DRB1*1501; 1730 nM against DRB1*1201; 341 nM at DRB1*0802; 200 nM against DR1 (DRB1*0101). The IC50 against DR4w4 (DRB1*0401) stood at 2910 nM; at DRB1*0901, 2010 nM; against DRB1*1302, 3380 nM.
On to QQTVCREGVKRRLIL [Peptide 90.0129], for which the IC50 against DRB1*0301 was 711 nM; against DRB4*0101, 11 nM; on DRB5*0101 it was > 20 µM; against DRB1*1501 it was > 20000 nM; at DRB1*1201 it was 12700 nM; against DRB1*0802, 3740 nM. Moreover, the IC50 was 5890 nM on DR1 (DRB1*0101); 82 nM at DR4w4 (DRB1*0401); 3920 nM against DRB1*0901; > 20000 nM against DR7 (DRB1*0701); > 20000 nM on DRB1*1302; 1020 nM on DRB1*1101 (Binding affinity DRB1 *1101).
LKSFLKGTPKKNCLV [Peptide 89.0035]: the IC50 against DRB1*0301 was > 20000 nM; at DRB4*0101, 4740 nM; against DRB1*1501, 5190 nM; against DRB1*1201 it was 3230 nM; against DRB1*0802, 208 nM; against DR1 (DRB1*0101), 30 nM. The IC50 on DR4w4 (DRB1*0401) worked out at 320 nM; on DRB1*0901, 2690 nM; against DRB1*1302, 430 nM.
With DDRWPYLHSRLVVFT [Peptide 89.0058], the IC50 against DRB1*0301 was > 20000 nM; against DRB4*0101 it was 297 nM; at DRB5*0101 (Binding affinity DRB5 *0101), > 20 µM; at DRB1*1501, 284 nM; on DRB1*1201, 297 nM; against DRB1*0802, 1700 nM. Moreover, the IC50 at DR1 (DRB1*0101) was 29 nM; against DR4w4 (DRB1*0401) it was > 20000 nM; on DRB1*0901 it was 158 nM; on DR7 (DRB1*0701), 68 nM; on DRB1*1302 it was 2190 nM.
In the case of IHFIQGAVISFVNST [Peptide 89.0037], the IC50 was > 20000 nM against DRB1*0301; 155 nM against DRB4*0101; > 20 µM on DRB5*0101 (Binding affinity DRB5 *0101); 6980 nM on DRB1*1501; 732 nM against DRB1*1201; 11700 nM at DRB1*0802. Moreover, the IC50 on DR1 (DRB1*0101) was 31 nM; at DR4w4 (DRB1*0401), 5130 nM; against DR7 (DRB1*0701) it was 338 nM; at DRB1*1101 (Binding affinity DRB1 *1101) it was > 20000 nM.
Consider RLTVAKGLSTLLHVP [Peptide 89.0028], for which the IC50 worked out at 14500 nM against DRB1*0301; 406 nM against DRB4*0101; 274 nM against DRB1*1201; 501 nM against DRB1*0802; 46 nM against DR1 (DRB1*0101); 53 nM against DR4w4 (DRB1*0401). The IC50 against DRB1*0901 was determined as 399 nM; on DR7 (DRB1*0701) it was 180 nM; against DRB1*1302, 675 nM; on DRB1*1101 (Binding affinity DRB1 *1101), 232 nM.
As for ESDMAFEYALLADSN [Peptide 90.0055], the IC50 was 591 nM on DRB1*0301; 165 nM at DRB4*0101; 428 nM against DRB1*1501; 16300 nM at DRB1*1201; 5730 nM against DRB1*0802; 57 nM at DR1 (DRB1*0101). In addition, the IC50 was 24 nM against DR4w4 (DRB1*0401), 826 nM on DRB1*0901, 1850 nM against DRB1*1302 and 4680 nM at DRB1*1101 (Binding affinity DRB1 *1101).
As to KSLFGMSLMKFLQGS [Peptide 89.0020], the IC50 at DRB1*0301 is > 20000 nM; on DRB4*0101 it was 449 nM; on DRB1*1501, 2110 nM; at DRB1*1201 it was 944 nM; at DR4w4 (DRB1*0401) it was 573 nM; against DRB1*0901, 310 nM. The IC50 against DR7 (DRB1*0701) came to 21 nM; at DRB1*1302, 4670 nM; at DRB1*1101 (Binding affinity DRB1 *1101), 535 nM.
In the case of RYRFQKYKTLFVDVT [Peptide 90.0019], the IC50 stood at 5630 nM against DRB1*0301; 4110 nM against DRB4*0101; 590 nM against DRB1*1501; 4510 nM at DRB1*1201; 407 nM against DRB1*0802; 74 nM on DR1 (DRB1*0101). Also, the IC50 against DR4w4 (DRB1*0401) was determined as 623 nM; on DRB1*0901, 226 nM; against DR7 (DRB1*0701) it was 43 nM; on DRB1*1302, 2170 nM; at DRB1*1101 (Binding affinity DRB1 *1101) it was 728 nM.
For IIHLKGDPNSLKCLR [Peptide 90.0228], the IC50 came to 11 nM against DRB1*0301; 1900 nM against DRB4*0101; 1.33 µM on DRB5*0101 (Binding affinity DRB5 *0101); 5830 nM at DRB1*1201; 877 nM at DRB1*0802; 121 nM at DR4w4 (DRB1*0401). The IC50 at DRB1*0901 is > 20000 nM; at DR7 (DRB1*0701) it was 2540 nM; against DRB1*1302 it was 163 nM; at DRB1*1101 (Binding affinity DRB1 *1101), > 20000 nM.
